# Test results: article PMC3904085 (Frontiers in Neuroscience, 2014)
# What was measured:
# human OX2 receptors = target: T1, human OX2 receptors (Homo sapiens, UniProt O43614); assay: Intracellular calcium mobilization (FLIPR), antagonist mode vs EC70 orexin-A; type: cell-based; design: expressed in transfected cells; conditions: HEK293 cells, mean ± s.e.m. (n); for Kb: read-out: Functional antagonist activity, Kb hOX2
# T1 sequence (O43614 1-444): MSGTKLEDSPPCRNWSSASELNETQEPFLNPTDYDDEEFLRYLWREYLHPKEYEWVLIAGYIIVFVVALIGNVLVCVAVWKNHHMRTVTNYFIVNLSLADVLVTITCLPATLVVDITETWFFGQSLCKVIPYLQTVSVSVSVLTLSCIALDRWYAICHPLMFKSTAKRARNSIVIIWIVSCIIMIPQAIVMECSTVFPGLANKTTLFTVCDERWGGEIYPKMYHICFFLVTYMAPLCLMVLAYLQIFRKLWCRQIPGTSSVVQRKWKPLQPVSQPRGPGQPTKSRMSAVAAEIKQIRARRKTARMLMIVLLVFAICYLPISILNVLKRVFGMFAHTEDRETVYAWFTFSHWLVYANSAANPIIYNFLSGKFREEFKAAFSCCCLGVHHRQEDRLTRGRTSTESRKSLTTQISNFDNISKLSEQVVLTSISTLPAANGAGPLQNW
# C57Bl/6 mice = assay: DRL 36-s schedule of reinforcement in wild-type mice; type: in vivo, mouse; conditions: for Lever Presses Mean / Reinforcers Mean: WT mice DRL-36-s, raw data
# Source text: (§1) The levers in these chambers were mounted on one wall with an adjacent food magazine next to the lever in the middle of the wall. A reinforced response caused a clicker apparatus to activate and the pellet feeder to deposit one 45-mg sucrose pellet (BioServ, Frenchtown, NJ) into the food magazine. The house light, which was mounted on the ceiling, was turned on when the session began, remained on throughout the entire session, and was turned off at the end of the session. Each experimental chamber was enclosed in a melamine sound-attenuating cubicle and equipped with a white noise generator to provide masking noise.
# (§2) Each mouse was initially trained under a variable time 60-s operant schedule for 5 days, followed by fixed ratio-1 ratio schedule for 5 days. After the mice had acquired lever-pressing behavior, they were trained during daily DRL 6-s sessions for ~1 week, then mice progressed through weekly ascending DRL requirements (12, 18, 24, 30 s) before moving to DRL 36-s sessions. […] Experimental sessions lasted for 45 min and were conducted 5 days/week during light hours.
# (§3) Drugs were administered to the animals once or twice weekly with at least 1 week between subsequent drugs to minimize possible carryover effects. Drug treatments were administered on Tuesdays and Fridays. No treatments were administered on other test days. Wednesdays were control days. “Control” behavior was calculated as the pooled mean lever presses or reinforcers received during Wednesday sessions across all Wednesdays for the duration of each study. Performance was normalized to percent of control by dividing total responses (or reinforcers) for each drug or vehicle treatment by the mean number of responses (reinforcers) in the respective pooled control condition, multiplied by 100.
# (§4) The data analyses were conducted on the raw response and reinforcement data. All behavioral data are expressed as the mean ± s.e.m. normalized to the control condition.
# Sprague–Dawley rats = assay: DRL 72-s schedule of reinforcement in rats; type: in vivo, rat; conditions: for Lever Presses Mean / Reinforcers Mean: HSD rats DRL-72-s, raw data
# Source text: Each chamber was enclosed in a melamine sound-attenuating cubicle. A white noise generator provided masking noise. The interior of each chamber consisted of three levers mounted on one wall with a house light mounted on the opposite wall. The house light was turned on at initiation of each test session and was turned off at the termination of each session. A water access port was situated next to the lever in the middle of the wall, wherein a reinforced response caused a clicker apparatus to sound paired with a dipper (0.02-ml cup) to be lifted from a water trough to an opening in the floor of the access port for 4 s.
# Rats were initially trained under an alternative fixed ratio 1 water reinforcement schedule with a fixed 1-min time schedule for automatic reinforcement. Thus, each response was reinforced, with water also provided every minute in the absence of a response. […] Following acquisition of lever-pressing behavior, rats were trained daily on DRL 18-s sessions for ~2 weeks, following which they were advanced to DRL 72-s sessions. Responding on these sessions became stable after ~8 weeks. Experimental test sessions lasted for 1 h and were conducted 5 days/week during light hours.
# as §3, §4
# [1] = system: mice lacking OX2 receptors; assay: DRL 36-s schedule of reinforcement in OX2 KO mice; type: in vivo, mouse; conditions: for Lever Presses Mean / Reinforcers Mean: OX2 KO mice DRL-36-s, raw data
# Source text: (§5) Rats were acclimated to housing conditions for 4 days, followed by sham dosing once daily for 3 days, prior to the experiment. For DRL experiments, male Sprague–Dawley rats weighing between 300 and 350 g at the beginning of the behavioral experiments (Holtzman, Madison, WI) were housed in pairs. For mouse DRL studies, male C57Bl/6 mice (Taconic Farms, Hudson, NY) or mice lacking either OX1 or OX2 receptors, around 8 weeks of age, were obtained from private breeding colonies at Taconic Farms (Hudson, NY). OX1 and OX2 receptor knockout mice were generated using in vitro fertilization of embryos in C57Bl/6 female mice with sperm harvested from male mice obtained from the University of Texas Southwestern Medical Center (Dallas, TX), and backcrossed for at least 10 generations. Mice and rats were housed in separate colony rooms, which were maintained at 22°C and 60% relative humidity. For rat DRL experiments, water was available for a 20-min period following the daily behavioral session. Based on recommendations from the animal care and use committee, the mouse DRL assay was developed using food deprivation rather than water deprivation. […] All experiments were conducted during the light cycle and in compliance with the Guide for the Care and Use of Laboratory Animals under protocols approved by a local animal care and use committee.
# as §1, §2, §3, §4
# [2] = system: mice lacking OX1 receptors; assay: DRL 36-s schedule of reinforcement in OX1 KO mice; type: in vivo, mouse; conditions: for Lever Presses Mean / Reinforcers Mean: OX1 KO mice DRL-36-s, raw data
# Source text: as §5, §1, §2, §3, §4
# [3] = dose 100 mg/kg, listed as almorexant inactive
# [4] = dose 100 mg/kg PO, listed as almorexant inactive, 100 mg/kg
# [5] = mice lacking OX1 receptors, 100 mg/kg
# [6] = C57Bl/6 mice DRL-36-s, significant at 100 mg/kg (Figure 5B legend)
compound,measurement,setting,value
CNC(=O)[C@@H](c1ccccc1)N1CCc2cc(OC)c(OC)cc2[C@@H]1CCc1ccc(C(F)(F)F)cc1 [Almorexant (R)],"Functional antagonist activity, Kb hOX2",human OX2 receptors,inactive
same,Kb,human OX2 receptors,> 10000 nM
same,"Effect on DRL behavior, in words","C57Bl/6 mice; C57Bl/6 mice DRL-36-s, 100 mg/kg",no significant effects on behavior
same,Lever Presses Mean,C57Bl/6 mice; [3],233.00
same,Reinforcers Mean,C57Bl/6 mice; [3],11.00
same,Lever Presses Mean,Sprague–Dawley rats; [4],64.73
same,Reinforcers Mean,Sprague–Dawley rats; [4],15.27
same,"Effect on DRL behavior, in words","Sprague–Dawley rats; rats DRL-72-s, 100 mg/kg",no effect on behavior
same,Lever Presses Mean,[1]; [3],112.88
same,Reinforcers Mean,[1]; [3],25.13
same,"Reinforcers received, effect in words","[1]; mice lacking OX2 receptors, 100 mg/kg",did not significantly affect
same,Lever presses emitted,"[1]; mice lacking OX2 receptors, DRL-36-s, 100 mg/kg",65 % of control
same,Lever Presses Mean,[2]; dose 100 mg/kg,103.75
same,Reinforcers Mean,[2]; dose 100 mg/kg,28.88
same,"Lever pressing, effect in words",[2]; [5],significant decrease
same,"Reinforcers received, effect in words",[2]; [5],significant increases
CNC(=O)[C@@H](c1ccccc1)N1CCc2cc(OC)c(OC)cc2[C@@H]1CCc1ccc(C(F)(F)F)cc1 [Almorexant (S)],Kb,human OX2 receptors,1.73 ± 0.35 nM
same,Lever presses emitted,C57Bl/6 mice; [6],47 % of control
same,Reinforcers received,C57Bl/6 mice; [6],> 400 % of control
same,Lever Presses Mean,C57Bl/6 mice; dose 10 mg/kg,174.25
same,Reinforcers Mean,C57Bl/6 mice; dose 10 mg/kg,14.00
same,Lever Presses Mean,C57Bl/6 mice; dose 20 mg/kg,161.13
same,Reinforcers Mean,C57Bl/6 mice; dose 20 mg/kg,15.50
same,Lever Presses Mean,C57Bl/6 mice; dose 40 mg/kg,172.38
same,Reinforcers Mean,C57Bl/6 mice; dose 40 mg/kg,20.25
same,Lever Presses Mean,C57Bl/6 mice; dose 100 mg/kg,114.88
same,Reinforcers Mean,C57Bl/6 mice; dose 100 mg/kg,27.13
same,Lever Presses Mean,Sprague–Dawley rats; dose 30 mg/kg PO,42.73
same,Reinforcers Mean,Sprague–Dawley rats; dose 30 mg/kg PO,13.55
same,Lever Presses Mean,Sprague–Dawley rats; dose 60 mg/kg PO,51.91
same,Reinforcers Mean,Sprague–Dawley rats; dose 60 mg/kg PO,17.91
same,Lever Presses Mean,Sprague–Dawley rats; dose 100 mg/kg PO,45.09
same,Reinforcers Mean,Sprague–Dawley rats; dose 100 mg/kg PO,19.55
same,"Reduction in lever presses emitted, in words","Sprague–Dawley rats; rats DRL-72-s, PO, 30–100 mg/kg",did not reach statistical significance
same,"Reinforcers received, effect in words","Sprague–Dawley rats; rats DRL-72-s, PO, significant at 100 mg/kg (Figure 5A legend)",significant increase
same,Doses with antidepressant-like efficacy in the rat DRL-72 sec model,Sprague–Dawley rats; reduced lever presses with increased reinforcers,100 mg/kg
same,Lever Presses Mean,[1]; dose 20 mg/kg,162.63
same,Reinforcers Mean,[1]; dose 20 mg/kg,28.75
same,Lever Presses Mean,[1]; dose 40 mg/kg,179.25
same,Reinforcers Mean,[1]; dose 40 mg/kg,20.50
same,Lever Presses Mean,[1]; dose 100 mg/kg,158.13
same,Reinforcers Mean,[1]; dose 100 mg/kg,24.75
same,"Antidepressant-like effect in DRL, in words","[1]; mice lacking OX2 receptors, up to 100 mg/kg",completely abolished
same,Lever Presses Mean,[2]; dose 10 mg/kg,111.38
same,Reinforcers Mean,[2]; dose 10 mg/kg,33.00
same,Lever Presses Mean,[2]; dose 20 mg/kg,124.75
same,Reinforcers Mean,[2]; dose 20 mg/kg,30.50
same,Lever Presses Mean,[2]; dose 40 mg/kg,108.25
same,Reinforcers Mean,[2]; dose 40 mg/kg,34.63
same,Lever Presses Mean,[2]; dose 60 mg/kg,110.13
same,Reinforcers Mean,[2]; dose 60 mg/kg,29.13
same,"Lever presses emitted, effect in words","[2]; mice lacking OX1 receptors, all doses 10–60 mg/kg",reduced the number of lever presses emitted
same,"Reinforcers received, effect in words","[2]; mice lacking OX1 receptors, at 10 and 40 mg/kg",significant increase
